Test results: patent US9328099B2, “Cyanomethylpyrazole carboxamides as janus kinase inhibitors” (Merck Sharp & Dohme Corp., priority 2011, dated 2016)

Columns and labels:
[1] = biological target: JAK1 (Homo sapiens (Human), UniProt P23458); assay: Jak Biochemical HTRF Assay, JAK1; details: HTRF biochemical assay, GST-tagged catalytic domain; top concentration tested […]; read-out: JAK1 IC50
Excerpt: (§1) Jak Biochemical HTRF Assay Protocol
(§2) Subsequent reagent additions employed an Agilent Bravo.

[2] = biological target: JAK2 (Homo sapiens (Human), UniProt O60674); assay: Jak Biochemical HTRF Assay, JAK2; details: HTRF biochemical assay, GST-tagged catalytic domain; top concentration tested […]
Chain of JAK2 (O60674 849-1124): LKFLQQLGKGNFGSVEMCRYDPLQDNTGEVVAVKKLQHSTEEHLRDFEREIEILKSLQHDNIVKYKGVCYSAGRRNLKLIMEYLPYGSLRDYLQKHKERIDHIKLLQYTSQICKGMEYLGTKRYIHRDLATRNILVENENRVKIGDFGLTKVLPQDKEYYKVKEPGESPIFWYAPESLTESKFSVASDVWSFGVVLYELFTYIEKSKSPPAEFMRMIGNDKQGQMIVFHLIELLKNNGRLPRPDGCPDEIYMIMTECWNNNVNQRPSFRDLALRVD
Excerpt: as §1, §2

Chain of JAK1 (P23458 875-1153): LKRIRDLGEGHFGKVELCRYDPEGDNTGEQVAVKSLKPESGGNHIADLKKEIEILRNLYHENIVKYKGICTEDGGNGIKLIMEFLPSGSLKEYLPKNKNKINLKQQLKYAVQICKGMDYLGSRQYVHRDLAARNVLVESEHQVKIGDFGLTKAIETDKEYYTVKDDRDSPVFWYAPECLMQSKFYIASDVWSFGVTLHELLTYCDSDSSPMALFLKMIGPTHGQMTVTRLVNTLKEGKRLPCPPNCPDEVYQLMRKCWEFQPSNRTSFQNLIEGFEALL

Row | SMILES | IC50 [1] | IC50 [2]
1 | Cc1c[nH]c(CN2CCC(CC#N)(n3cc(C(N)=O)c(Nc4ccnc(F)c4)n3)CC2)n1 [Example 22-4, 1-{4-(cyanomethyl)-1-[(4-methyl-1H-imidazol-2-yl)methyl]piperidin-4-yl}-3-[(2-fluoropyridin-4-yl)amino]-1H-pyrazole-4-carboxamide] | 74 nM | 1180 nM
2 | N#CCC1(n2cc(C(N)=O)c(Nc3ccccc3)n2)CN(S(=O)(=O)c2ccco2)C1 [Example 37-17, 1-[3-(cyanomethyl)-1-(furan-2-ylsulfonyl)azetidin-3-yl]-3-(phenylamino)-1H-pyrazole-4-carboxamide] | 95 nM | 247 nM
3 | CN1CC(CC#N)(n2cc(C(N)=O)c(Nc3ccccc3)n2)C1 [Example 20, 1-[3-(Cyanomethyl)-1-methylazetidin-3-yl]-3-(phenylamino)-1H-pyrazole-4-carboxamide] | 358 nM | 1480 nM
4 | N#CCC1(n2cc(C(N)=O)c(Nc3ccnc(F)c3)n2)CCC(Nc2ccc(F)cc2F)CC1 (stereo not drawn) [Example 40-37, Cis or trans 1-{1-(cyanomethyl)-4-[(2,4-difluorophenyl)amino]cyclohexyl}-3-[(2-fluoropyridin-4-yl)amino]-1H-pyrazole-4-carboxamide] | 16 nM | 506 nM
5 | N#CCC1(n2cc(C(N)=O)c(Nc3ccccc3)n2)CCN(C(=O)c2ccc(N3CCOCC3)cc2)CC1 [Example 34-31, 1-{4-(cyanomethyl)-1-[(4-morpholin-4-ylphenyl)carbonyl]piperidin-4-yl}-3-(phenylamino)-1H-pyrazole-4-carboxamide] | 61 nM | 704 nM
6 | N#CCC1(n2cc(C(N)=O)c(Nc3ccccc3)n2)CCN(S(=O)(=O)C2CC2)CC1 [Example 37-15, 1-[4-(cyanomethyl)-1-(cyclopropylsulfonyl)piperidin-4-yl]-3-(phenylamino)-1H-pyrazole-4-carboxamide] | 0.4 nM | 3 nM
7 | COc1cc(F)cc(N2CCC(CC#N)(n3cc(C(N)=O)c(Nc4ccc(F)cc4)n3)CC2)c1 [Example 3-12, 1-[4-(cyanomethyl)-1-(3-fluoro-5-methoxyphenyl)piperidin-4-yl]-3-[(4-fluorophenyl)amino]-1H-pyrazole-4-carboxamide] | 2 nM | 40 nM
8 | CC(C)(C)CC(=O)N1CCC(CC#N)(n2cc(C(N)=O)c(Nc3ccnc(F)c3)n2)CC1 [Example 34-54, 1-[4-(cyanomethyl)-1-(3,3-dimethylbutanoyl)piperidin-4-yl]-3-[(2-fluoropyridin-4-yl)amino]-1H-pyrazole-4-carboxamide] | 0.6 nM | 44 nM
9 | COc1ccc(C(=O)N2CCC(CC#N)(n3cc(C(N)=O)c(Nc4ccccc4)n3)CC2)cc1OC [Example 34-27, 1-{4-(cyanomethyl)-l-[(3,4-dimethoxyphenyl)carbonyl]piperidin-4-yl}-3-(phenylamino)-1H-pyrazole-4-carboxamide] | 32 nM | 448 nM
10 | N#CCC1(n2cc(C(N)=O)c(Nc3ccc(F)cc3)n2)CCC(Nc2ccccc2)CC1 (stereo not drawn) [Example 40-96, Cis or trans 1-[1-(cyanomethyl)-4-(phenylamino)cyclohexyl]-3-[(4-fluorophenyl)amino]-1H-pyrazole-4-carboxamide] | 0.09 nM | 2 nM
11 | N#CCC1(n2cc(C(N)=O)c(Nc3ccc(S(=O)(=O)C(F)F)cc3)n2)CCC(Nc2ccccc2)CC1 (stereo not drawn) [Example 40-102, Cis or trans 1-[1-(cyanomethyl)-4-(phenylamino)cyclohexyl]-3-({4-[(difluoromethyl)sulfonyl]phenyl}amino)-1H-pyrazole-4-carboxamide] | 0.05 nM | 1 nM
12 | N#CCC1(n2cc(C(N)=O)c(Nc3ccccc3)n2)CCN(C(=O)OCc2ccccc2)CC1 [Example 27-4, benzyl 4-[4-carbamoyl-3-(phenylamino)-1H-pyrazol-1-yl]-4-(cyanomethyl)piperidine-1-carboxylate] | 3 nM | 85 nM
13 | N#CCC1(n2cc(C(N)=O)c(Nc3ccc(S(=O)(=O)C(F)(F)F)cc3)n2)CCN(C(=O)OCC(F)(F)F)CC1 [Example 10-2, 2,2,2-trifluoroethyl 4-(4-carbamoyl-3-(4-(trifluoromethylsulfonyl)phenylamino)-1H-pyrazol-1-yl)-4-(cyanomethyl)piperidine-1-carboxylate] | 0.5 nM | 4 nM
14 | N#CCC1(n2cc(C(N)=O)c(Nc3ccc(F)cc3)n2)CCN(c2ccc(C(O)C(F)(F)F)cc2)CC1 (stereo not shown) [Example 3-9, 1-{4-(cyanomethyl)-1-[4-(2,2,2-trifluoro-1-hydroxyethyl)phenyl]piperidin-4-yl}-3-[(4-fluorophenyl)amino]-1H-pyrazole-4-carboxamide] | 1 nM | 37 nM
15 | CC(C)(C)OC(=O)N1CCC(CC#N)(n2cc(C(N)=O)c(Nc3ccc(C(C)(C)O)nc3)n2)CC1 [Example 9-6, tert-butyl 4-(4-carbamoyl-3-(6-(2-hydroxypropan-2-yl)pyridin-3-ylamino)-1H-pyrazol-1-yl)-4-(cyanomethyl)piperidine-1-carboxylate] | 0.8 nM | 3 nM
16 | Cc1ncncc1N1CCC(CC#N)(n2cc(C(N)=O)c(Nc3ccc(F)cc3)n2)CC1 [Example 3-47, 1-[4-(cyanomethyl)-1-(4-methylpyrimidin-5-yl)piperidin-4-yl]-3-[(4-fluorophenyl)amino]-1H-pyrazole-4-carboxamide] | 13 nM | 181 nM
17 | CN1CCN(c2ccc(C(=O)N3CCC(CC#N)(n4cc(C(N)=O)c(Nc5ccccc5)n4)CC3)cc2)CC1 [Example 34-34, 1-[4-(cyanomethyl)-1-{[4-(4-methylpiperazin-1-yl)phenyl]carbonyl}piperidin-4-yl] 3-(phenylamino)-1H-pyrazole-4-carboxamide] | 60 nM | 830 nM
18 | N#CCC1(n2cc(C(N)=O)c(Nc3ccnc(F)c3)n2)CCC(NCc2ccc(F)cc2F)CC1 (stereo not drawn) [Example 41-4, Cis or trans 1-{1-(cyanomethyl)-4-[(2,4-difluorobenzyl)amino]cyclohexyl}-3-[(2-fluoropyridin-4-yl)amino]-1H-pyrazole-4-carboxamide] | 0.09 nM | 2 nM
19 | N#CCC1(n2cc(C(N)=O)c(Nc3ccc(S(=O)(=O)C(F)F)cc3)n2)CCC(NCC(F)F)CC1 (stereo not drawn) [Example 40-99, Cis or trans 1-{1-(cyanomethyl)-4-[(2,2-difluoroethyl)amino]cyclohexyl}-3-({4-[(difluoromethyl)sulfonyl]phenyl}amino)-1H-pyrazole-4-carboxamide] | 506 nM | > 1500 nM
20 | Cc1cc(Cl)ccc1NC(=O)N1CC(CC#N)(n2cc(C(N)=O)c(Nc3ccccc3)n2)C1 [Example 38-14, 1-{1-[(4-chloro-2-methylphenyl)carbamoyl]-3-(cyanomethyl)azetidin-3-yl}-3-(phenylamino)-1H-pyrazole-4-carboxamide] | 25 nM | 334 nM
21 | CC(C)Oc1ccc(CN2CCC(CC#N)(n3cc(C(N)=O)c(Nc4ccccc4)n3)CC2)cc1 [Example 21-27, 1-{4-(cyanomethyl)-1-[4-(1-methylethoxy)benzyl]piperidin-4-yl}-3-(phenylamino)-1H-pyrazole-4-carboxamide] | 36 nM | 809 nM
22 | N#CCC1(n2cc(C(N)=O)c(Nc3ccc(F)cc3)n2)CCN(c2cncc(C#N)c2)CC1 [Example 3-21, 1-[4-(cyanomethyl)-1-(5-cyanopyridin-3-yl)piperidin-4-yl]-3-[(4-fluorophenyl)amino]-1H-pyrazole-4-carboxamide] | 0.6 nM | 20 nM
23 | Cc1cnc(F)c(CN2CCC(CC#N)(n3cc(C(N)=O)c(Nc4ccc(F)cc4)n3)CC2)c1 [Example 22-44, 1-{4-(cyanomethyl)-1-[(2-fluoro-5-methylpyridin-3-yl)methyl]piperidin-4-yl}-3-[(4-fluorophenyl)amino]-1H-pyrazole-4-carboxamide] | 5 nM | 22 nM
24 | N#CCC1(n2cc(C(N)=O)c(Nc3ccc(F)cc3)n2)CCN(Cc2ccco2)CC1 [Example 22-54, 1-[4-(cyanomethyl)-1-(furan-2-ylmethyl)piperidin-4-yl]-3-[(4-fluorophenyl)amino]-1H-pyrazole-4-carboxamide] | 1 nM | 28 nM
25 | N#CCC1(n2cc(C(N)=O)c(Nc3ccc(F)cc3)n2)CCN(Cc2cccc3cc[nH]c23)CC1 [Example 22-58, 1-[4-(cyanomethyl)-1-(1H-indol-7-ylmethyl)piperidin-4-yl]-3-[(4-fluorophenyl)amino]-1H-pyrazole-4-carboxamide] | 4 nM | 128 nM
26 | N#CCC1(n2cc(C(N)=O)c(Nc3ccc(F)cc3)n2)CCN(c2cccnc2)CC1 [Example 3-30, 1-[4-(cyanomethyl)-1-pyridin-3-ylpiperidin-4-yl]-3-[(4-fluorophenyl)amino]-1H-pyrazole-4-carboxamide] | 0.3 nM | 6 nM
27 | N#CCC1(n2cc(C(N)=O)c(Nc3ccc(F)cc3)n2)CCN(c2cc(F)ccn2)CC1 [Example 3-44, 1-[4-(cyanomethyl)-1-(4-fluoropyridin-2-yl)piperidin-4-yl]-3-[(4-fluorophenyl)amino]-1H-pyrazole-4-carboxamide] | 0.2 nM | 6 nM
28 | N#CCC1(n2cc(C(N)=O)c(Nc3ccnc(F)c3)n2)CCC(Nc2cccc(F)c2)CC1 (stereo not drawn) [Example 40-55, Cis or trans 1-{1-(cyanomethyl)-4-[(3-fluorophenyl)amino]cyclohexyl}-3-[(2-fluoropyridin-4-yl)amino]-1H-pyrazole-4-carboxamide] | 13 nM | 409 nM
29 | N#CCC1(n2cc(C(N)=O)c(Nc3ccc(F)cc3)n2)CCN(Cc2cc(F)ccn2)CC1 [Example 22-50, 1-{4-(cyanomethyl)-1-[(4-fluoropyridin-2-yl)methyl]piperidin-4-yl}-3-[(4-fluorophenyl)amino]-1H-pyrazole-4-carboxamide] | 0.6 nM | 16 nM
